Data on 20 molecules can be found in patent publication US9908897B2, “Spirocyclic derivatives” (CHRONOS THERAPEUTICS LIMITED, priority 2014, dated 2018).

As usually defined, the IC50 is the concentration needed to halve the response being measured.

Data set [1] addresses human serotonin transporter (SERT) (Homo sapiens (Human), UniProt P31645). Briefly: Scintillation Proximity Assay (SPA) competition binding, human SERT. To be noted: recombinant hSERT-CHO membranes, [3H]citalopram.
Data set [2] has as its target human dopamine transporter (DAT) (Homo sapiens (Human), UniProt Q01959). Briefly: Scintillation Proximity Assay (SPA) competition binding, human DAT. Particulars: recombinant hDAT-CHO membranes, [3H]WIN-35,428. The method, boiled down: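 SPA binding on membranes from CHO cells stably expressing human DAT, with 5 nM [3H]WIN-35,428, WGA-PVT beads and 0.02% BSA in HEPES/NaCl/KCl buffer pH 7.4.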
A general note: Scintillation proximity formats need no separation of bound from free tracer.

For data set [3], the target named is human ERG potassium channel (hERG) (Homo sapiens (Human), UniProt Q12809). The data set can be described thus: hERG tail current recording, Rapid ICE automated patch-clamp. To be noted: HEK293 cells stably transfected with hERG. It is filed as cell-based. The procedure:
Measure of the Effect on hERG Channel by Tail Current Recording Using In Vitro Rapid ICE™
The potency of the compounds of the invention in inhibiting human ERG potassium channel (hERG) tail current is assessed in a recombinant HEK293 cell line stably transfected with hERG cDNA using Rapid ICE™ (Rapid Ion Channel Electrophysiology) assay. Rapid ICE™ is an automated patch-clamp assay utilizing the PatchXpress 7000A system (Molecular Devices Corporation) or the QPatch HTX system (Sophion Bioscience A/S).
Briefly cells are cultivated for 24 to 72 hours before recordings in minimum essential medium supplemented with 10% FBS, 1% non-essential amino acids, 1% sodium pyruvate, 2 mM L-glutamine. The day of the experiment cells are detached with TrypLE and prepared to be loaded on the instrument. For PatchXpress cells are finally resuspended in 150 μl of Extracellular Buffer whereas for QPatch cells are resuspended in 7 ml Serum-Free Media containing 25 mM Hepes and Soybean trypsin inhibitor and immediately placed in the cell storage tank of the machine. The composition of the Extracellular Buffer is (mM): NaCl 137; KCl 4; CaCl2 1.8; MgCl2 1.0; D-glucose 10; N 2 hydroxyethylpiperazine-N′-2-ethanesulfonic acid (HEPES) 10; pH 7.4 with 1 M NaOH. The composition of the pipette solution is (mM): KCl 130; MgCl2 1.0; Ethylene glycol-bis(β-aminoethyl ether)-N,N,N′,N′-tetraacetic acid (EGTA) 5; MgATP 5; HEPES 10; pH 7.2 with 1 M KOH. The voltage protocol includes the following steps: step from −80 mV to −50 mV for 200 ms, +20 mV for 4.8 s, step to −50 mV for 5 s then step to the holding potential of −80 mV. Compounds of the invention are dissolved in DMSO and diluted in Extracellular Buffer to achieve final test concentrations (0.1, 1 and 10 μM) in 0.1% DMSO. The voltage protocol is run and recorded continuously during the experiment. The vehicle, corresponding to 0.1% DMSO in Extracellular Buffer, is then applied for 3 min followed by the test substance in triplicate. The standard combined exposure time is 5 min. The average of tail current amplitude values recorded from 4 sequential voltage pulses is used to calculate for each cell the effect of the test substance by calculating the residual current (% control) compared with vehicle pre-treatment. Data are reported as % inhibition for each concentration tested and IC50 values are estimated using DataXpress or QPatch software. At least two cells are tested, more if results diverge.

For data set [4], the target named is human norepinephrine transporter (NET) (Homo sapiens (Human), UniProt P23975). The data set can be described thus: Scintillation Proximity Assay (SPA) competition binding, human NET. To be noted: recombinant hNET-CHO membranes, [3H]nisoxetine.
Chain of human norepinephrine transporter (NET) (P23975 whole entry): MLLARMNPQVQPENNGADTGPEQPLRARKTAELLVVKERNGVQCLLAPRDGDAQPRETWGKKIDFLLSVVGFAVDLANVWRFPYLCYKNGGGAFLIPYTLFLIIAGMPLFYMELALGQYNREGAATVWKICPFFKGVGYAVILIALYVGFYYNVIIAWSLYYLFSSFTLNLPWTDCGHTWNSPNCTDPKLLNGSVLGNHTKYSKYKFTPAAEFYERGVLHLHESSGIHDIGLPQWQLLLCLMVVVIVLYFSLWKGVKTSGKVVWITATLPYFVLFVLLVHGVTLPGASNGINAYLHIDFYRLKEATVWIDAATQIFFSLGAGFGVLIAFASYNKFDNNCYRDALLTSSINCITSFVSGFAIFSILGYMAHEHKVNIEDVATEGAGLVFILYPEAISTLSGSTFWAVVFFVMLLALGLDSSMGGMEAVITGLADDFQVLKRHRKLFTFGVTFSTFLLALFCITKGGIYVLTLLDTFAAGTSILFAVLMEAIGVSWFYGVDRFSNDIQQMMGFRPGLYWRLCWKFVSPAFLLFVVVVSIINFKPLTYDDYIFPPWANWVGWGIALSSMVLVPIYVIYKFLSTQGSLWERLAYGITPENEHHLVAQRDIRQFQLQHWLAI

Chain of human serotonin transporter (SERT) (P31645 whole entry): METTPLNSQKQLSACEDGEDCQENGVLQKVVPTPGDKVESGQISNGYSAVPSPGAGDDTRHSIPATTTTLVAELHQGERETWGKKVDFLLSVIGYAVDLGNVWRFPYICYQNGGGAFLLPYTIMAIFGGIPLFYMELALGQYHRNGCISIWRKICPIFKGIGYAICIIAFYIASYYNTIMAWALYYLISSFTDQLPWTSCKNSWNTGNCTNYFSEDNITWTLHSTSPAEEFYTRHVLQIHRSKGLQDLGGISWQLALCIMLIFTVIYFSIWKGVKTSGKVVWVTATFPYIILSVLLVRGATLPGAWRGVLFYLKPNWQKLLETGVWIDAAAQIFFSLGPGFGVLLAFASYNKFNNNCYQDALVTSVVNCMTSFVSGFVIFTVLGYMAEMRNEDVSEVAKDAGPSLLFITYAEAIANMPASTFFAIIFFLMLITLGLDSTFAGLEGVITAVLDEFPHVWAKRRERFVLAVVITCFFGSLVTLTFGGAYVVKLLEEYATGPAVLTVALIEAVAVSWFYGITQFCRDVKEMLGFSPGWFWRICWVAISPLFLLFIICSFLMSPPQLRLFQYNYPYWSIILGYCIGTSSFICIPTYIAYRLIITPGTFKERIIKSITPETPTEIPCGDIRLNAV
Chain of human dopamine transporter (DAT) (Q01959 whole entry): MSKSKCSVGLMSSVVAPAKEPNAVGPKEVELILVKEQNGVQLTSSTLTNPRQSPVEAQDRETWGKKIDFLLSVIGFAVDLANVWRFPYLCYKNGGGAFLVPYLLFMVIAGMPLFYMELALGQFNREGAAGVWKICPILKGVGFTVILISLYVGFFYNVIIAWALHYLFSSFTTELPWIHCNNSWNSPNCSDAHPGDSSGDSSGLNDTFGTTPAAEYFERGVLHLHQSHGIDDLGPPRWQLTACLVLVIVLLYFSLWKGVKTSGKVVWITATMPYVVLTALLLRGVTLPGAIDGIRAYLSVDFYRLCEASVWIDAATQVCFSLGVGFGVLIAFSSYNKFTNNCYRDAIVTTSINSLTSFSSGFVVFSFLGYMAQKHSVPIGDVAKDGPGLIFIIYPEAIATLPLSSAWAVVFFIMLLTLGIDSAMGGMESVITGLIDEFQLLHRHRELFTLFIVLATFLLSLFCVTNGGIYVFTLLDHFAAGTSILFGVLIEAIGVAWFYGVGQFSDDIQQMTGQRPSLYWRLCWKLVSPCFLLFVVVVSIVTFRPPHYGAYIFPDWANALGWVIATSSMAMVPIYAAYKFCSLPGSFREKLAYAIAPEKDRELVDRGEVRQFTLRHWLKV
Chain of human ERG potassium channel (hERG) (Q12809 whole entry): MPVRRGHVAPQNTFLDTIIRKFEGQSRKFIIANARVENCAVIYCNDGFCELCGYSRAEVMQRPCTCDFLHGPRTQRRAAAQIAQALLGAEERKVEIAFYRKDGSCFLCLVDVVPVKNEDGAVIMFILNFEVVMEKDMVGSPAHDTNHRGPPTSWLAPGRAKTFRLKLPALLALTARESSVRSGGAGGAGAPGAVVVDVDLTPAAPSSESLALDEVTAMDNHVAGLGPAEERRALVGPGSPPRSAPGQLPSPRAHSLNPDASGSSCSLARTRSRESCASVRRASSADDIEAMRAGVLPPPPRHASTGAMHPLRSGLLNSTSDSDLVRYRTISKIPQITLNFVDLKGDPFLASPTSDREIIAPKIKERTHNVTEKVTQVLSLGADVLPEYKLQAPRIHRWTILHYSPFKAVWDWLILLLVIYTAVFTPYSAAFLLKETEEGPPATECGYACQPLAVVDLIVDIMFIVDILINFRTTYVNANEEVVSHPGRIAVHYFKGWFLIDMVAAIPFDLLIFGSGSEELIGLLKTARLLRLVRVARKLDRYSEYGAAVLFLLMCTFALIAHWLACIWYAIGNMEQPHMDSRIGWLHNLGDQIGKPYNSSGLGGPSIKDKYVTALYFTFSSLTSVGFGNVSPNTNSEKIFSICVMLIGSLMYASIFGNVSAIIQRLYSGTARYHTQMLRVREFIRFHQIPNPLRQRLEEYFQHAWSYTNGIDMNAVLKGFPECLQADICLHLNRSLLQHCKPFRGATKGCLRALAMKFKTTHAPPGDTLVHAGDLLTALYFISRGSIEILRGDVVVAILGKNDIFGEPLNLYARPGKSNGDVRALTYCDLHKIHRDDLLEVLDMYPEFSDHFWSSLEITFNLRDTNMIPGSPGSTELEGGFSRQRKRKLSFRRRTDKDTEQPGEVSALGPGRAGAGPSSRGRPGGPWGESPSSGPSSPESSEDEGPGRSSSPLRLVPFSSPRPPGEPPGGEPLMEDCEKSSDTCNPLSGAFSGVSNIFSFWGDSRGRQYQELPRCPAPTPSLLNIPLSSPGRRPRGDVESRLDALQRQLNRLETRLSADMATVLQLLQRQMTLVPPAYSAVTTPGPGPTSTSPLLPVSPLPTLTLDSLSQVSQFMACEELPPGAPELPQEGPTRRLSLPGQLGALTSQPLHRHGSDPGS

With `Cl.Fc1cccc(Oc2cc(C3CC3)nc(N3CCC4(CC3)CNCCO4)n2)c1` [Example 65, 9-[4-cyclopropyl-6-(3-fluorophenoxy)pyrimidin-2-yl]-1-oxa-4,9-diazaspiro[5.5]undecane hydrochloride], the “pIC50 SERT” value in data set [1] stood at 5.44. Moreover, in data set [2], the “pIC50 DAT” value was 8.79. Further, in data set [3], the “pIC50 hERG” value is listed as 5.7. The “pIC50 NET” value in data set [4] was found to be 7.08.
As for `Cl.Fc1cccc(Oc2cc(C(F)(F)F)nc(N3CCC4(CCNCC45OCCO5)C3)n2)c1` (centres unmarked) [Example 95, 8-[4-(3-fluorophenoxy)-6-(trifluoromethyl)pyrimidin-2-yl]-1,4-dioxa-8,13-diazadispiro[4.0.4^6.4^5]tetradecane hydrochloride], the “pIC50 SERT” value in data set [1] was found to be 6.29. Moreover, the “pIC50 DAT” value in data set [2] is 8.16. Besides, the “pIC50 hERG” value in data set [3] was 5.6. The “pIC50 NET” value in data set [4] is given as 6.09.
For `Cl.Fc1cccc(Oc2ccnc(N3CCC4(CC3)CNCCO4)n2)c1` [Example 42, 9-[4-(3-fluorophenoxy)pyrimidin-2-yl]-1-oxa-4,9-diazaspiro[5.5]undecane hydrochloride] the same measures were 4.69, 7.33, 6.4 and 5.64.
As for `O=S1(=O)CCNCC12CCN(c1nc(Oc3cccc(F)c3)cc(C(F)(F)F)n1)CC2` [Example 72, 9-[4-(3-fluorophenoxy)-6-(trifluoromethyl)pyrimidin-2-yl]-1λ^6-thia-4,9-diazaspiro[5.5]undecane-1,1-dione], the IC50 in data set [1] was more than 100 µM. Besides, in data set [2], the “pIC50 DAT” value is 7.08. Besides, the “pIC50 hERG” value in data set [3] came out at 5.5. Besides, the “pIC50 NET” value in data set [4] worked out at 4.92.
As to `Fc1cccc(Oc2ccc(F)c(N3CCC4(CC3)CNCCO4)c2)c1` [Example 10, 9-[2-fluoro-5-(3-fluorophenoxy)phenyl]-1-oxa-4,9-diazaspiro[5.5]undecane], the “pIC50 SERT” value in data set [1] was found to be 5.32. Also, the “pIC50 DAT” value in data set [2] is 7.56. Besides, the “pIC50 hERG” value in data set [3] came out at 5.6. The “pIC50 NET” value in data set [4] is 6.07.
In the same order, the values of `Fc1cccc(Oc2cc(F)c(F)cc2N2CCC3(CCNC3)CC2)c1` [Example 91, 8-[4,5-difluoro-2-(3-fluorophenoxy)phenyl]-2,8-diazaspiro[4.5]decane] are 7.29, 8.01, 5.9 and 6.26.
In the same order, the values of `Cc1cc(Oc2cccc(F)c2)nc(N2CCC3(CC2)CNCCO3)n1.Cl` [Example 44, 9-[4-(3-fluorophenoxy)-6-methylpyrimidin-2-yl]-1-oxa-4,9-diazaspiro[5.5]undecane hydrochloride] are 4.80, 8.29, 6.0 and 6.65.
In the same order, the values of `Fc1cccc(Oc2cc(F)c(F)cc2N2CCC3(CCNCC3)C2)c1` [Example 90, 2-[4,5-difluoro-2-(3-fluorophenoxy)phenyl]-2,8-diazaspiro[4.5]decane] are 6.31, 8.36, 6.1 and 6.85.
On to `Fc1cccc(Oc2cc(N3CCC4(CC3)CNCCO4)ccc2F)c1` [Example 11, 9-[4-fluoro-3-(3-fluorophenoxy)phenyl]-1-oxa-4,9-diazaspiro[5.5]undecane], for which the “pIC50 SERT” value in data set [1] turned out to be 6.22. Further, in data set [2], the “pIC50 DAT” value came out at 6.78. Moreover, the “pIC50 hERG” value in data set [3] was determined as 6.5. Moreover, the “pIC50 NET” value in data set [4] came out at 5.72.
In the same order, the values of `COc1cc(Oc2cccc(F)c2)nc(N2CCC3(CC2)CNCCO3)n1.Cl` [Example 66, 9-[4-(3-fluorophenoxy)-6-methoxypyrimidin-2-yl]-1-oxa-4,9 diazaspiro[5.5]undecane hydrochloride] are 5.27, 8.29, 5.7 and 6.52.
In the same order, the values of `N#Cc1ccc(Oc2ccccc2)c(N2CCC3(CC2)CNCCO3)c1` [Example 5, 3-{1-oxa-4,9-diazaspiro[5.5]undecan-9-yl}-4-phenoxybenzonitrile] are 7.63, 6.82, 6.2 and 6.19.
As for `O=C1COC2(CCN(c3nc(Oc4cccc(F)c4)cc(C(F)(F)F)n3)CC2)CN1` [Example 68, 9-[4-(3-fluorophenoxy)-6-(trifluoromethyl)pyrimidin-2-yl]-1-oxa-4,9-diazaspiro[5.5]undecan-3-one], the “pIC50 SERT” value in data set [1] worked out at 4.45. In addition, the “pIC50 DAT” value in data set [2] stood at 7.28. The same molecule showed a concentration for half-maximal inhibition (IC50) in data set [3] of more than 10 µM. For the same molecule, the “pIC50 NET” value in data set [4] is 5.39.
Consider `Cc1cc(Oc2cccc(C#N)c2)nc(N2CCC3(CC2)CNCCO3)n1.Cl` [Example 46, 3-[(6-methyl-2-{1-oxa-4,9-diazaspiro[5.5]undecan-9-yl}pyrimidin-4-yl)oxy]benzonitrile hydrochloride], for which the “pIC50 SERT” value in data set [1] is given as 6.11. For the same molecule, the “pIC50 DAT” value in data set [2] came out at 8.03. Moreover, the “pIC50 hERG” value in data set [3] was determined as 6.6. The “pIC50 NET” value in data set [4] was found to be 5.85.
For `Cl.Fc1cccc(Oc2cc(C(F)(F)F)cc(N3CCC4(CC3)CNCCO4)n2)c1` [Example 37, 9-[6-(3-fluorophenoxy)-4-(trifluoromethyl)pyridin-2-yl]-1-oxa-4,9-diazaspiro[5.5]undecane hydrochloride] the same measures were 5.33, 8.86, 5.9 and 7.07.
In the case of `Cl.Fc1ccccc1Oc1cc(C(F)(F)F)nc(N2CCC3(CC2)CNCCO3)n1` [Example 57, 9-[4-(2-fluorophenoxy)-6-(trifluoromethyl)pyrimidin-2-yl]-1-oxa-4,9-diazaspiro[5.5]undecane hydrochloride], the “pIC50 SERT” value in data set [1] amounted to 6.18. Besides, in data set [2], the “pIC50 DAT” value is reported as 7.89. The “pIC50 hERG” value in data set [3] came to 5.7. For the same molecule, in data set [4], the “pIC50 NET” value is reported as 5.94.
In the same order, the values of `Fc1cccc(Oc2cc(F)c(F)cc2N2CCC3(CCCNC3)C2)c1` (centres unmarked) [Example 84, 2-[4,5-difluoro-2-(3-fluorophenoxy)phenyl]-2,7-diazaspiro[4.5]decane] are 6.33, 7.94, 6.6 and 6.76.
In the same order, the values of `Fc1cccc(Oc2cc(F)c(F)cc2N2CCC3(CC2)CNCCO3)c1` [Example 1, 9-[4,5-difluoro-2-(3-fluorophenoxy)phenyl]-1-oxa-4,9-diazaspiro[5.5]undecane] are 6.44, 7.96, 6.0 and 5.69.
As to `Fc1cccc(Oc2cc(F)c(F)cc2N2CCC3(CCCNC3)CC2)c1` [Example 79, 9-[4,5-difluoro-2-(3-fluorophenoxy)phenyl]-2,9-diazaspiro[5.5]undecane], the “pIC50 SERT” value in data set [1] was 6.49. In data set [2], the “pIC50 DAT” value was determined as 7.86. In addition, the “pIC50 hERG” value in data set [3] amounted to 6.1. Also, the “pIC50 NET” value in data set [4] was 6.31.
In the same order, the values of `O=S1(=O)CCNCC12CCN(c1cc(F)c(F)cc1Oc1cccc(F)c1)CC2` [Example 71, 9-[4,5-difluoro-2-(3-fluorophenoxy)phenyl]-1λ^6-thia-4,9-diazaspiro[5.5]undecane-1,1-dione] are 4.55, 6.22, 5.1 and 4.82.
In the same order, the values of `Fc1cccc(Oc2cc(F)cc(N3CCC4(CC3)CNCCO4)c2F)c1` [Example 21, 9-[2,5-difluoro-3-(3-fluorophenoxy)phenyl]-1-oxa-4,9-diazaspiro[5.5]undecane] are 6.48, 9.11, 5.4 and 7.49.
